A word on the IC50: it is the concentration needed to halve the response being measured.

Residues, ends and D or L forms follow the SMILES beside them.

This assay addresses T1, human LAG3/FGL1 interaction (Homo sapiens, UniProt P18627).
T1 construct: purchased BPS Bioscience
T1 sequence (P18627 23-450 limits assumed): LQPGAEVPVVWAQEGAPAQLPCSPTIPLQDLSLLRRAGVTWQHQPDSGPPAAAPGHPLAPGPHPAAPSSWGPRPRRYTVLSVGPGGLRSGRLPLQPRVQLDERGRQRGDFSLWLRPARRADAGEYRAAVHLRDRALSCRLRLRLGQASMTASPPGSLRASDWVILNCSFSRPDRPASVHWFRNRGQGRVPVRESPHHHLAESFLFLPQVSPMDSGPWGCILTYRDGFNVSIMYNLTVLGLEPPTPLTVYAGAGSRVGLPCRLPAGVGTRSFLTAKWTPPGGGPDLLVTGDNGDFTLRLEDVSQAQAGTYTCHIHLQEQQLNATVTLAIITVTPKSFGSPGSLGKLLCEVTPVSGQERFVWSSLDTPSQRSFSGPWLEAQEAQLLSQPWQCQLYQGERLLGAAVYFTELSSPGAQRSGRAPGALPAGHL
Description: Human LAG3/FGL1 TR-FRET Binding Assay (BPS Bioscience). Particulars: peptides tested at 100, 33, and 11 μM; 1 hr at RT; read-out: IC50 in LAG3:FLG1 TR-FRET Assay. Here is the method: This example tested the ability of peptides to inhibit the interaction between human LAG3 and FGL1. The peptides were tested using a Human LAG3/FGL1 TR-FRET Binding Assay (BPS Bioscience) carried out according to the manufacturer's instructions.
Peptides 6, 41, 68, 69, 115, 146, 154, and 155 were tested at 100, 33, and 11 μM. Peptide LG56 ([…]; SEQ ID NO:14) served as a peptide positive control. Peptide 93 (SEQ ID NO:15) served as a negative or low activating peptide control. A neutralizing anti-human LAG3 antibody (BPS Bioscience Cat. #71219) was used as an antibody positive control.
Reaction mixes were incubated 1 hr at RT before development. After development, plate was read in a Tecan M1000 TR-FRET instrument.
A general note: In TR-FRET formats the signal depends on donor and acceptor labels being close together.
As for `CC[C@H](C)[C@H](NC(=O)[C@H](C)NC(=O)CNC(=O)[C@H](C)NC(=O)[C@H](CC(N)=O)NC(=O)[C@@H]1CCCN1C(=O)[C@H](Cc1ccc(O)cc1)NC(=O)[C@H](CCC(N)=O)NC(=O)[C@H](CCCCN)NC(=O)[C@H](CCC(N)=O)NC(=O)[C@@H](NC(=O)[C@H](CCC(N)=O)NC(=O)[C@H](CCC(=O)O)NC(=O)[C@H](CCCCN)NC(=O)[C@@H](NC(=O)[C@@H]1CCCN1C(=O)[C@H](C)NC(=O)[C@@H]1CCCN1C(=O)[C@@H](NC(=O)[C@@H](N)CCCNC(=N)N)C(C)C)C(C)C)C(C)C)C(=O)O` [Low Activity Peptide, reference compound] (H-RVPAPVKEQVQKQYPNAGAI-OH; N-terminus and C-terminus assumed), the IC50 was > 100 µM.

`CC[C@H](C)[C@H](NC(=O)[C@H](CC(=O)O)NC(=O)[C@H](CC(=O)O)NC(=O)[C@H](C)NC(=O)[C@H](Cc1ccc(O)cc1)NC(=O)[C@H](CC(C)C)NC(=O)[C@H](CCCNC(=N)N)NC(=O)[C@@H](NC(=O)[C@H](CCC(=O)O)NC(=O)[C@H](CCCCN)NC(=O)[C@H](CCC(=O)O)NC(=O)[C@H](CC(=O)O)NC(=O)[C@H](Cc1c[nH]c2ccccc12)NC(=O)[C@H](CC(=O)O)NC(=O)[C@H](CCSC)NC(=O)[C@H](CCCNC(=N)N)NC(=O)[C@H](Cc1ccccc1)NC(=O)[C@@H](N)C(C)C)C(C)C)C(=O)N[C@@H](CC(C)C)C(=O)N[C@@H](CC(C)C)C(=O)O` [Peptide 146] (H-VFRMDWDEKEVRLYADDILL-OH; N-terminus and C-terminus assumed): the IC50 worked out at 7.2 µM.

Consider `CSCC[C@H](NC(=O)[C@@H](NC(=O)[C@H](CCC(=O)O)NC(=O)[C@H](CC(C)C)NC(=O)[C@@H](NC(=O)[C@H](CCC(N)=O)NC(=O)[C@H](CCC(=O)O)NC(=O)[C@H](CCCNC(=N)N)NC(=O)[C@H](CC(N)=O)NC(=O)[C@H](Cc1c[nH]cn1)NC(=O)[C@@H](N)CCC(=O)O)C(C)C)C(C)C)C(=O)N[C@@H](Cc1ccc(O)cc1)C(=O)N[C@@H](CO)C(=O)N[C@@H](Cc1ccccc1)C(=O)N[C@@H](CCC(N)=O)C(=O)N[C@H](C(=O)N[C@@H](CC(N)=O)C(=O)N[C@@H](CC(=O)O)C(=O)N[C@@H](Cc1ccc(O)cc1)C(=O)N[C@@H](Cc1ccccc1)C(=O)O)C(C)C` [Peptide 154] (H-EHNREQVLEVMYSFQVNDYF-OH; N-terminus and C-terminus assumed), for which the IC50 turned out to be 7.2 µM.
